What was measured:
AGS cells = assay: Cell viability assay, AGS; type: cell-based, human; details: Homo sapiens, 72 hours, Cell Counting Kit-8, read-out: G12D IC50
In short: (§1)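 Cells were plated at 5,000 (NCI-H358) or 2,000 (AGS, SW620) per well and incubated overnight. They were then treated with compound in 0.5% DMSO for 72 h. Viability was read with CCK-8 as OD450 minus OD650 after 2 h, and IC50 came from a 4-parameter sigmoidal fit.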

NCI-H358 cells = assay: Cell viability assay, NCI-H358; type: cell-based, human; details: Homo sapiens, NCI-H358, 72 hours, Cell Counting Kit-8, read-out: G12C IC50
In short: as §1

With CO[C@@H](C)c1ncc(N2CCOCC2)cc1-c1c2c3cc(ccc3n1CC(F)(F)F)-c1csc(n1)C[C@H](NC(=O)[C@H](C(C)C)N(C)C(=O)[C@H]1CCN(C(=O)[C@H](F)Cl)C1)C(=O)N1CCC[C@H](N1)C(=O)OCC(C)(C)C2 (atropisomer, axis not shown; (M)) [Example 25, (3S)-1-[(2R)-2-chloro-2-fluoro-acetyl]-N-[(1S)-1-[[(7S,13S)-(20M)-20-[2-[(1S)-1-methoxyethyl]-5-morpholino-3-pyridyl]-17,17-dimethyl-8,14-dioxo-21-(2,2,2-trifluoroethyl)-15-oxa-4-thia-9,21,27,28-tetrazapentacyclo[17.5.2.12,5.19,13.022,26]octacosa-1(25),2,5(28),19,22(26),23-hexaen-7-yl]carbamoyl]-2-methyl-propyl]-N-methyl-pyrrolidine-3-carboxamide] the IC50 (AGS cells) was 94 nM and the IC50 (NCI-H358 cells) was < 0.6 nM.

— patent US20250163072A1, “MACROCYCLIC COMPOUNDS FOR THE TREATMENT OF CANCER” (Hoffmann-La Roche Inc., priority 2021, published 2025)
